“Also recorded” adds a separate entry of the source.
Experiments:
HsRad51 = biological target: T1, HsRad51 (Homo sapiens, UniProt Q06609); assay: RAD51 oligomerization by SDS-PAGE gel after crosslink; assay type: biochemical; settings: 2.5 μM HsRad51, disuccinimidyl suberate crosslink, SDS-PAGE/Western blot; FIG. 1
T1 sequence (Q06609 1-339): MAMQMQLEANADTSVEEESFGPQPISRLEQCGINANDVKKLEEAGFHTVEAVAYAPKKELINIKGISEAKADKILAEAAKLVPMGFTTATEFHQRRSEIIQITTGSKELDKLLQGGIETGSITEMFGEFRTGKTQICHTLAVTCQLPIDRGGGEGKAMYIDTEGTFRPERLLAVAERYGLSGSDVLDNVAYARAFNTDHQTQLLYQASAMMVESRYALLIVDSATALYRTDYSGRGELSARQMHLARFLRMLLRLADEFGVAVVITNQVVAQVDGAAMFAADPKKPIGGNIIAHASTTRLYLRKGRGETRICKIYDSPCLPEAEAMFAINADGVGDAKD
Protocol: The reaction was performed at room temperature. 2.5 μm HsRad51 was incubated with the indicated concentrations of tested compounds for 10 min in a buffer containing 20 mm sodium phosphate, 50 mm NaCl, 1 mm MgCl 2, and 1 mm ATP. The cross-linking reactions were initiated by the addition of disuccinimidyl suberate (50 μm) and allowed to proceed for 30 min. Reactions were quenched by the addition of Tris-HCl (pH 7.5, final concentration: 50 mm) followed by subsequent incubations for 15 min. The products were then separated by 12% SDS polyacrylamide gel electrophoresis and detected by Western blot with mouse monoclonal anti-Rad51 antibody (NeoMarkers) and anti-mouse Alexa-Fluor 700-conjugated secondary antibody (Molecular Probes, Eugene, OR). The cross-linked dimer was quantified by an Odyssey Infrared Imaging System scanner (Li-Cor Biosciences) (Martinez, S. F. et al., “Targeting human Rad51 by specific DNA aptamers induces inhibition of homologous recombination”, Biochimie, December 2010, Vol. 92, No. 12, pp. 1832-1838).
The SDS-PAGE electrophoresis after crosslink maintains and immobilizes the RAD51 protein complexes and thus allows visualization of the degree of oligomerization (polymer formation) of the RAD51 protein. The effect of RAD51 protein inhibitors B-1, B-2, B-3, DIDS and X-4 on this key step of RAD51 protein recombinase activity has thus been evaluated. The results are presented on FIG. 1.

Rad51 = biological target: T2, Rad51 (Homo sapiens, UniProt Q06609); assay: RAD51 nucleofilament formation by Bio-Layer Interferometry (BLItz), binding of Rad51 to ssDNA
T2 sequence (Q06609 1-339): T1 sequence (Q06609 1-339)
Protocol: The binding of Rad51 to ssDNA was monitored and quantified by Bio-Layer Interferometry technology using the BLItz platform (FortéBio Inc.). The procedure includes four steps: (1) the baseline in buffer A containing 1×PBS, 10 mM MgCl2 and 0.0075% Tween20 was recorded for 20 s; (2) loading and binding of Rad51 were measured for 40 s using 1.5 μM Rad51 and 1 mM ATP in buffer A; (3) the dissociation of Rad51 from ssDNA was recorded for 20 s in buffer A; (4) the ssDNA biosensor was regenerated using baths of 50 mM NaOH. Except for the step 2, which used 4 μL drop of the protein sample, the steps 1, 3 and 4 used 250 μL solutions in 0.5 mL tube. The measurement parameters were as follows: room temperature measurement and stirring speed of 2200 rpm. To investigate the effect of CSB and analogs to the ssDNA binding of Rad51, the molecule was included in the protein sample of the step 2 at the indicated concentrations and incubated for 5 min before loading on the biosensor. (Normand, A. et al., “Identification and characterization of human Rad51 inhibitors by screening of an existing drug library.”, Biochemical Pharmacology, October 2014, Vol. 91, No. 3, pp. 293-300).
A test based on interferometry (Blitz®, Fortebio) allows the measure of the association kinetics of RAD51 protein with a single-stranded DNA immobilized on a biosensor support in the presence or absence of an inhibitor. The effect of compounds B-1, B-2, B-3, BPQ and X-4 on RAD51 nucleofilament formation has been evaluated in presence of increasing doses of inhibitors. The results are presented on FIG. 2.

[1] = test system: RAD51 foci in DU-145 cells; assay: Rad51 foci quantification by immunofluorescence; assay type: cell-based; settings: DU-145, B-2 20 μM + cisplatin 30 μM; FIG. 8
Protocol: DU-145 cells were grown on coverslips (Life Technologies) at a density of 5×10^3 cells per well in medium (RPMI) supplemented with 10% fetal bovine serum (Gibco-Invitrogen). Cells were treated with Cisplatin at 30 μM for 1 hour in presence or in absence of RAD51 inhibitor B-2 at 20 μM, and then the medium was replaced with molecule-free medium. After 18 h, cells were washed once in PBS for 5 min and fixed with ethanol absolute for 25 min.
The fixed cells were incubated for 1 h in the PBS buffer containing 1:1000 diluted anti-RAD51 antibody at room temperature. After three 5-min washes in PBS, slides were incubated with PBS solution containing the secondary antibody conjugated with AlexaFluor 555 ([…]) for 45 min in dark room. […] The images were recorded with NIS Element software (Version 3.6, Nikon, Tokyo, Japan). The quantification of RAD51 foci was processed with a program derived from Fiji-ImageJ software (NIH, Bethesda, Maryland, USA). […]
The treatment with Cisplatin alone induces a high level of RAD51 foci, whereas this level is decreased when the treatment is associated with B-2 20 μM. After the quantification of the number of RAD51 foci per cell, the number of cells containing more than 20 RAD51 foci was determined.

## N#Cc1ccc(/C=C/c2ccc(C#N)cc2S(=O)(=O)[O-])c(S(=O)(=O)[O-])c1.[Na+].[Na+] [B-2, Sodium (E)-6,6′-(ethene-1,2-diyl)bis(3-cyanobenzenesulfonate)]
HsRad51
  oligomerization state of RAD51 protein: significant reduction; also recorded: very strongly diminished
Rad51; FIG. 2
  activity on nucleofilament formation compared with reference molecule BPQ: comparable to or even better
Rad51; high dose (50 μM)
  effect on nucleofilament formation compared with DIDS: same effect
Rad51; increasing doses of inhibitors, FIG. 2
  formation of RAD51 protein nucleofilament (relative binding of RAD51 protein with single-stranded DNA): inhibit; also recorded: very strongly diminished
Rad51; low dose (5 μM)
  activity on nucleofilament formation compared with reference molecule DIDS: comparable
[1]
  decrease of level of RAD51 foci mediated by cisplatin (cells containing more than 20 RAD51 foci): about 20%
